Source: patent US11471478B2, “Use of cyclodextrins in diseases and disorders involving phospholipid dysregulation” (priority 2017, dated 2022)
Values joined by “and” are separate entries in the source; they are usually repeats but may differ in a detail not shown here. Identical values can stand only once.

Key:
[1] = cited from earlier work
[2] = cited from earlier work; remark: listed apart in the source
[3] = system: MDA-MB 231 and MCF-7 human breast epithelial cell lines; assay: Wound healing / gap closure migration assay; format: cell-based; conditions: 2 h treatment, MDA-MB 231 and MCF-7
Protocol: Published results have shown that β-CD inhibits human MDA-MB 231 cell migration (Guerra F S, Sampaio LdS, et al. (2016) Translational Medicine Communications 1:3). This inhibition was attributed to the ability of β-CD to “deplete cholesterol”. β-CD, however, depletes also phospholipids. […] Cells were cultured in 24-well culture plates (Cytoselect CBA-120, 0.9 mm wound healing/gap closure migration assay) for 24 h with wound healing insert in place. Cells were then treated for 2 h with HP-β-CD, HP-α-CD, or control. Protocol: Warm up the 24-well plate (CBA-120, Cell BioLabs Inc.) with 0.9 mm CytoSelect Wound Healing Inserts at room temperature for 10 min. Using sterile forceps, orient the desired number of inserts in the plate wells with their “wound field” aligned in the same direction. […] Add 500 μL of cell suspension to each well by carefully inserting the pipette tip through the open end at the top of the insert. For optimal cell dispersion, add 250 μL of cell suspension to either side of the open ends at the top of the insert. Incubate cells in a cell culture incubator for 12-24 hours. Carefully remove the insert from the well to begin the wound healing assay. Use sterile forceps to grab and lift the insert slowly from the plate well. Slowly aspirate and discard the media from the wells. Wash wells with media to remove dead cells and debris. Finally, add media to wells to keep cells hydrated. Repeat wash if wells still have debris or unattached cells. When washing is complete, add media with FBS and/or compounds to continue cell culture and wound healing process. Agents that inhibit or stimulate cell migration can be added directly to the wells. Incubate cells in a cell culture incubator (2 hours) and then wash cells with PBS and then add fresh media without compounds. Incubate 12-24 hours before wash and fixing. Remove the fixation solution and add 400 μL of Cell Stain Solution to each well. Allow the stain to incubate with the cells for 15 minutes at room temperature. Aspirate and discard the solution. Carefully wash each stained well 3× with deionized water. Discard washes and allow cells to dry at room temperature. Cells that migrated into the wounded area or protruded from the border of the wound were visualized and photographed under an inverted microscope. Determine the surface area of the defined wound area: Total Surface Area=0.9 mm×length. Determine the surface area of the migrated cells into the wound area: Migrated Cell Surface Area=length of cell migration (mm)×2× length. Percent Closure (%)=Migrated Cell Surface Area/Total Surface Area×100 (see FIG. 36)

[4] = system: MDA-MB-231 breast cancer cells; assay: NSG mice injected with human MDA-MB-231 breast cancer cells; format: in vivo
Protocol: NSG mice (NOD.Cg-Prkdcscid Il2rgtm1Wjl/SzJ, strain #005557 (10 wk old) were obtained from Jackson Laboratories (Bar Harbor, Me.), housed in isolated quarters, and fed with autoclaved water and food.
An MDA-MB-231 cell line was obtained (ATCC) and kept frozen in liquid nitrogen. Upon start of culture, cells were thawed (1.5 min in 37° C. water) and transferred to DMEM/F-12 supplemented with 5% FBS, 2 mM L-glutamine, 1 mM sodium pyruvate, and 0.02 mM non-essential amino acids. Cells were grown to several millions in 60 mm dishes at 70-80% confluence. Before injection, cells were briefly rinsed twice in PBS followed by Versene (EDTA, Invitrogen) and placed on ice with excess phosphate-buffered saline and phenol red-free matrigel basement membrane extract to a concentration of about 15 mg/mL matrigel. 100 μL cell mixture (20,000 cells or saline only) were injected into the lactiferous duct of the 3rd or 4th mammary glands under brief isofluorane anesthesia. Groups of 15 mice each were injected IP with 800 mg/kg of HP-α-CD, HP-β-CD per week (over four days, Mon, Tue, Thu, Fri), or saline (control) for six weeks. Size of the primary tumor was measured weekly.
Breast tissue were palpated and measured twice a week with a micro-metric analytical device scaled to 1 mm precision. Mice were weighed weekly on a digital scale (0.1 g precision).
At the end of the study period, mice were anaesthetized with isofluorane with 1× phosphate-buffered saline (PBS) and subsequently with 4% formaldehyde in PBS. Tissue from lung and liver were removed and fixated in formalin for microscopic examination. Metastases were visualized and counted by tissue embedding in paraffin and sectioning with immunohistochemistry and histological stain (H&E) and immunostained with anti-HLA antibody. After blocking for 1 h with BSA (5%, frac V), the anti-HLA was incubated at 4° C. overnight, washed for 1 h in PBS, then incubated with biotinylated anti-mouse IgG for 1 h at room temperature. After washing with PBS, metastases were detected on the slide using Envision (Dako).
After blood collection, whole blood samples were centrifuged (at 10,000 m/s^2 for 15 min and then at 100,000 m/s^2 for 10 min), and plasma was isolated. The samples were stored at −80° C. until analysis.
Prior to analysis (30 min), samples and assay reagents were equilibrated to room temperature. The samples were run at a 1:4 dilution and quantified in duplicate using a multi-plex mouse panel for quantification of IL-1β, IL-18, IL-6, IL-8, IL-17A, and GM-CSF (Bio-Plex Pro assays, Bio-Rad Laboratories) on a Luminex Bio-Plex 200 System (Bio-Rad Laboratories).

[5] = long-term parenteral, 200 mg/kg; cited from earlier work
BBB = conditions: cited from earlier work
rats = conditions: rat, in vivo, iv; cited from earlier work
cats = conditions: doses of 4-8 g/kg; cited from earlier work
Tg19959 mice = conditions: four months of subcutaneous administration; cited from earlier work
mice/rats = conditions: in vivo; cited from earlier work
[6] = cited from earlier work; remark: listed apart in the source
[7] = parenteral, 12 g twice daily for 15 days; cited from earlier work
keratinocytes = conditions: cited from earlier work
[8] = cited from earlier work; remark: listed apart in the source
children with NPC = conditions: doses of up to 1000 mg/kg/d; cited from earlier work
whole blood = conditions: cited from earlier work
[9] = cited from earlier work; remark: listed apart in the source
[10] = rats, suppositories containing triglycerides (Witepsol H5); cited from earlier work
SwN2a cells = conditions: cited from earlier work
[11] = IP 800 mg/kg per week for six weeks

CC(O)COC[C@H]1O[C@@H]2O[C@H]3[C@H](O)[C@@H](O)[C@@H](O[C@H]4[C@H](O)[C@@H](O)[C@@H](O[C@H]5[C@H](O)[C@@H](O)[C@@H](O[C@H]6[C@H](O)[C@@H](O)[C@@H](O[C@H]7[C@H](O)[C@@H](O)[C@@H](O[C@H]8[C@H](O)[C@@H](O)[C@@H](O[C@H]1[C@H](O)[C@H]2O)O[C@@H]8COCC(C)O)O[C@@H]7COCC(C)O)O[C@@H]6COCC(C)O)O[C@@H]5COCC(C)O)O[C@@H]4COCC(C)O)O[C@@H]3COCC(C)O (stereo partly drawn) [HP-β-CD, hydroxypropyl-beta-cyclodextrin]
Permitted Daily Exposure (PDE) threshold, parenteral ([1]; CHMP 2014): 10 mg/kg/day | Permitted Daily Exposure (PDE) threshold, parenteral, revised ([1]; Oct. 9, 2017): 200 mg/kg/day | excreted after i.v. unchanged in urine [2]: ~90% | cell migration / wound closure, concentration dependence [3]: migration decreased with higher concentration | Tumor volume, median [4, 11]: 378 mm3 | effect on tumor volume [4, 11]: effective | plasma cytokines (IL-1β, IL-18, IL-6, IL-8, IL-17A, GM-CSF) versus Vehicle ([4]; conventional 0.05 level): significant in four other markers (not in IL-8) | mice that did not develop lung metastases ([4]; groups of 15 mice): 3 mice | mice who died ([4]; groups of 15 mice): two | bone mineral density (BMD) [5]: decrease bone mineral density (BMD) | Transport across BBB (BBB; 2 h, 1 mM): 6.6 (1 mM) % | BBB breakdown (BBB): 2.5 mM | toxicity on the BBB model (BBB): similarly safe | i.v. toxicity, 1 g/kg daily (rats): no signs ^6) | hearing (cats): causes permanent hearing loss | spatial learning and memory deficits (Tg19959 mice): significantly improved spatial learning and memory deficits | LD50 i.v./i.p. in mice/rats (mice/rats): 10000 mg/kg | half-life (t1/2) after i.v. in rats ([6]; i.v.): 20 min | oral absorption in rats ([6]; oral): ≤3% | side effects [7]: No side effects were observed | caspase-dependent apoptotic cell death (keratinocytes): not | Solubility in water [8]: >600 g/l and >600 ^2) g/l | tolerability (children with NPC): well tolerated | whole blood TD50 (whole blood): 9 mM/L | i.v. toxicity, 500 mg/kg [9]: no damage | rectal absorption [10]: 26% | level of membrane cholesterol (SwN2a cells): reduced | levels of Aβ42 (SwN2a cells): dramatically lowered
